Measurements: PubChem BioAssay AID1963975 (Molecular Pharmacology Branch, DTP, NCI, 2024)
Blank lines part the entries; values can stand above or below the compound they belong to.

Tested on: 624824-186-R-J2-PDC multicell spheroids, viability
Test: Anticancer human tumor 624824-186-R-J2-PDC patient-derived colon adenocarcinoma cell line growth inhibition [PI3K]
Conditions: for IC50: curve of first compound; for viability, T/C: stronger effect = lower value
Procedure, shortened: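 Targeted small molecules plus PI3K inhibitors, half-log dose series from Cmax (default top 10 microM), were applied to heterotypic spheroids of cancer cells with HUVEC and MSCs. Viability indicated growth inhibition.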

[1] = second compound 0.0316 µM, first compound 0.0316 µM
[2] = second compound 0.0316 µM, first compound 0.1 µM
[3] = second compound 0.0316 µM, first compound 0.316 µM
[4] = second compound 0.0316 µM, first compound 1 µM
[5] = second compound 0.0316 µM, first compound 3.16 µM
[6] = second compound 0.0316 µM, first compound 10 µM
[7] = second compound 0.1 µM, first compound 0.0316 µM
[8] = second compound 0.1 µM, first compound 0.1 µM
[9] = second compound 0.1 µM, first compound 0.316 µM
[10] = second compound 0.1 µM, first compound 1 µM
[11] = second compound 0.1 µM, first compound 3.16 µM
[12] = second compound 0.1 µM, first compound 10 µM
[13] = second compound 0.316 µM, first compound 0.0316 µM
[14] = second compound 0.316 µM, first compound 0.1 µM
[15] = second compound 0.316 µM, first compound 0.316 µM
[16] = second compound 0.316 µM, first compound 1 µM
[17] = second compound 0.316 µM, first compound 3.16 µM
[18] = second compound 0.316 µM, first compound 10 µM
[19] = second compound 1 µM, first compound 0.0316 µM
[20] = second compound 1 µM, first compound 0.1 µM
[21] = second compound 1 µM, first compound 0.316 µM
[22] = second compound 1 µM, first compound 1 µM
[23] = second compound 1 µM, first compound 3.16 µM
[24] = second compound 1 µM, first compound 10 µM
[25] = second compound 3.16 µM, first compound 0.0316 µM
[26] = second compound 3.16 µM, first compound 0.1 µM
[27] = second compound 3.16 µM, first compound 0.316 µM
[28] = second compound 3.16 µM, first compound 1 µM
[29] = second compound 3.16 µM, first compound 3.16 µM
[30] = second compound 3.16 µM, first compound 10 µM
[31] = second compound 10 µM, first compound 0.0316 µM
[32] = second compound 10 µM, first compound 0.1 µM
[33] = second compound 10 µM, first compound 0.316 µM
[34] = second compound 10 µM, first compound 1 µM
[35] = second compound 10 µM, first compound 3.16 µM
[36] = second compound 10 µM, first compound 10 µM
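Also: spheroids exposed to agents for 7 days before viability read.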
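For viability, T/C in this document: 100% = DMSO vehicle treated spheroids.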

SMILES: CC(C)NCC(C(=O)N1CCN(c2ncnc3c2C(C)CC3O)CC1)c1ccc(Cl)cc1 (stereo not given) + Cc1nc(NC(=O)N2CCCC2C(N)=O)sc1-c1ccnc(C(C)(C)C(F)(F)F)c1
- IC50 (second compound 0.0316 µM): > 10 µM
- IC50 (second compound 0.1 µM): > 10 µM
- IC50 (second compound 0.316 µM): > 10 µM
- IC50 (second compound 1 µM): > 10 µM
- IC50 (second compound 3.16 µM): > 10 µM
- IC50 (second compound 10 µM): > 10 µM
- viability, T/C [1]: 88.1%
- viability, T/C [2]: 106%
- viability, T/C [3]: 72.2%
- viability, T/C [4]: 85%
- viability, T/C [5]: 93.3%
- viability, T/C [6]: 68.2%
- viability, T/C [7]: 79.3%
- viability, T/C [8]: 72.6%
- viability, T/C [9]: 85%
- viability, T/C [10]: 68.1%
- viability, T/C [11]: 76.5%
- viability, T/C [12]: 74.4%
- viability, T/C [13]: 78.2%
- viability, T/C [14]: 68.2%
- viability, T/C [15]: 77.5%
- viability, T/C [16]: 75.3%
- viability, T/C [17]: 79.6%
- viability, T/C [18]: 64.9%
- viability, T/C [19]: 64.5%
- viability, T/C [20]: 85.9%
- viability, T/C [21]: 63.4%
- viability, T/C [22]: 86.4%
- viability, T/C [23]: 76.5%
- viability, T/C [24]: 75.4%
- viability, T/C [25]: 78.2%
- viability, T/C [26]: 79.8%
- viability, T/C [27]: 81.3%
- viability, T/C [28]: 82.2%
- viability, T/C [29]: 68%
- viability, T/C [30]: 55.9%
- viability, T/C [31]: 73.5%
- viability, T/C [32]: 66.6%
- viability, T/C [33]: 58.1%
- viability, T/C [34]: 62.5%
- viability, T/C [35]: 63.7%
- viability, T/C [36]: 55.8%

SMILES: Cn1ncc(Cl)c1-c1cc(C(=O)NC(CN)Cc2cccc(F)c2)sc1Cl (stereo not given) + Cc1nc(NC(=O)N2CCCC2C(N)=O)sc1-c1ccnc(C(C)(C)C(F)(F)F)c1
- IC50 (second compound 0.0316 µM): > 10 µM
- IC50 (second compound 0.1 µM): 9.82 µM
- IC50 (second compound 0.316 µM): 8.5 µM
- IC50 (second compound 1 µM): 8.01 µM
- IC50 (second compound 3.16 µM): 4.42 µM
- IC50 (second compound 10 µM): 3.02 µM
- viability, T/C [1]: 58.2%
- viability, T/C [2]: 80.2%
- viability, T/C [3]: 77.9%
- viability, T/C [4]: 82.1%
- viability, T/C [5]: 62.6%
- viability, T/C [6]: 56.1%
- viability, T/C [7]: 78.9%
- viability, T/C [8]: 84.3%
- viability, T/C [9]: 70.5%
- viability, T/C [10]: 75.2%
- viability, T/C [11]: 64.9%
- viability, T/C [12]: 49.2%
- viability, T/C [13]: 88.5%
- viability, T/C [14]: 79%
- viability, T/C [15]: 87%
- viability, T/C [16]: 80%
- viability, T/C [17]: 63.5%
- viability, T/C [18]: 47.8%
- viability, T/C [19]: 70.6%
- viability, T/C [20]: 77.8%
- viability, T/C [21]: 86.6%
- viability, T/C [22]: 74%
- viability, T/C [23]: 63.5%
- viability, T/C [24]: 46.8%
- viability, T/C [25]: 84.1%
- viability, T/C [26]: 84.2%
- viability, T/C [27]: 71.1%
- viability, T/C [28]: 62.8%
- viability, T/C [29]: 62.6%
- viability, T/C [30]: 34.7%
- viability, T/C [31]: 80.7%
- viability, T/C [32]: 73.3%
- viability, T/C [33]: 64%
- viability, T/C [34]: 66.8%
- viability, T/C [35]: 49.1%
- viability, T/C [36]: 30.9%

SMILES: Cn1nccc1Nc1nccc(-c2ccn(C(CO)c3ccc(Cl)c(F)c3)c(=O)c2)n1 (stereo not given) + Cc1nc(NC(=O)N2CCCC2C(N)=O)sc1-c1ccnc(C(C)(C)C(F)(F)F)c1
- IC50 (second compound 0.0316 µM): > 10 µM
- IC50 (second compound 0.1 µM): > 10 µM
- IC50 (second compound 0.316 µM): > 10 µM
- IC50 (second compound 1 µM): > 10 µM
- IC50 (second compound 3.16 µM): 1.56 µM
- IC50 (second compound 10 µM): 0.276 µM
- viability, T/C [1]: 88.2%
- viability, T/C [2]: 79.8%
- viability, T/C [3]: 72.2%
- viability, T/C [4]: 92%
- viability, T/C [5]: 95.7%
- viability, T/C [6]: 101%
- viability, T/C [7]: 68.3%
- viability, T/C [8]: 68.6%
- viability, T/C [9]: 78.5%
- viability, T/C [10]: 81.4%
- viability, T/C [11]: 108%
- viability, T/C [12]: 83.2%
- viability, T/C [13]: 90.1%
- viability, T/C [14]: 72.8%
- viability, T/C [15]: 74%
- viability, T/C [16]: 91.9%
- viability, T/C [17]: 96.3%
- viability, T/C [18]: 81.9%
- viability, T/C [19]: 82.9%
- viability, T/C [20]: 79%
- viability, T/C [21]: 65.5%
- viability, T/C [22]: 74.9%
- viability, T/C [23]: 76.3%
- viability, T/C [24]: 52.3%
- viability, T/C [25]: 80.5%
- viability, T/C [26]: 61.6%
- viability, T/C [27]: 65%
- viability, T/C [28]: 54.6%
- viability, T/C [29]: 44.2%
- viability, T/C [30]: 37.3%
- viability, T/C [31]: 66.4%
- viability, T/C [32]: 58.6%
- viability, T/C [33]: 47.8%
- viability, T/C [34]: 37.8%
- viability, T/C [35]: 19.2%
- viability, T/C [36]: 5.96%

Second part, led by results:

- IC50 (second compound 0.0316 µM): > 10 µM
- IC50 (second compound 0.1 µM): > 10 µM
- IC50 (second compound 0.316 µM): > 10 µM
- IC50 (second compound 1 µM): > 10 µM
- IC50 (second compound 3.16 µM): > 10 µM
- IC50 (second compound 10 µM): > 10 µM
SMILES: C=CC(=O)N1CCN(c2nc(=O)n(-c3c(C)ccnc3C(C)C)c3nc(-c4c(O)cccc4F)c(F)cc23)C(C)C1 (stereo not given) + Cc1nc(NC(=O)N2CCCC2C(N)=O)sc1-c1ccnc(C(C)(C)C(F)(F)F)c1
- viability, T/C [1]: 98%
- viability, T/C [2]: 71.2%
- viability, T/C [3]: 101%
- viability, T/C [4]: 101%
- viability, T/C [5]: 92.8%
- viability, T/C [6]: 100%
- viability, T/C [7]: 91.9%
- viability, T/C [8]: 107%
- viability, T/C [9]: 105%
- viability, T/C [10]: 80%
- viability, T/C [11]: 93.9%
- viability, T/C [12]: 101%
- viability, T/C [13]: 112%
- viability, T/C [14]: 87.8%
- viability, T/C [15]: 91.2%
- viability, T/C [16]: 79.9%
- viability, T/C [17]: 90.8%
- viability, T/C [18]: 87%
- viability, T/C [19]: 86.2%
- viability, T/C [20]: 79.5%
- viability, T/C [21]: 70.4%
- viability, T/C [22]: 84.9%
- viability, T/C [23]: 85.2%
- viability, T/C [24]: 67.5%
- viability, T/C [25]: 86.8%
- viability, T/C [26]: 88.1%
- viability, T/C [27]: 92%
- viability, T/C [28]: 83%
- viability, T/C [29]: 82.6%
- viability, T/C [30]: 93.9%
- viability, T/C [31]: 79.2%
- viability, T/C [32]: 86.5%
- viability, T/C [33]: 79.5%
- viability, T/C [34]: 91.5%
- viability, T/C [35]: 84.1%
- viability, T/C [36]: 77.2%

- IC50 (second compound 0.0316 µM): > 1 µM
- IC50 (second compound 0.1 µM): > 1 µM
- IC50 (second compound 0.316 µM): > 1 µM
- IC50 (second compound 1 µM): > 1 µM
- IC50 (second compound 3.16 µM): > 1 µM
- IC50 (second compound 10 µM): > 1 µM
SMILES: CCN1CCN(Cc2ccc(Nc3ncc(F)c(-c4cc(F)c5nc(C)n(C(C)C)c5c4)n3)nc2)CC1 + Cc1nc(NC(=O)N2CCCC2C(N)=O)sc1-c1ccnc(C(C)(C)C(F)(F)F)c1
- viability, T/C (second compound 0.0316 µM, first compound 0.00316 µM): 95.9%
- viability, T/C (second compound 0.0316 µM, first compound 0.01 µM): 92.4%
- viability, T/C [1]: 87.3%
- viability, T/C [2]: 72.8%
- viability, T/C [3]: 75.5%
- viability, T/C [4]: 102%
- viability, T/C (second compound 0.1 µM, first compound 0.00316 µM): 85.8%
- viability, T/C (second compound 0.1 µM, first compound 0.01 µM): 81.7%
- viability, T/C [7]: 67.9%
- viability, T/C [8]: 82.8%
- viability, T/C [9]: 87%
- viability, T/C [10]: 92.8%
- viability, T/C (second compound 0.316 µM, first compound 0.00316 µM): 91.4%
- viability, T/C (second compound 0.316 µM, first compound 0.01 µM): 79.2%
- viability, T/C [13]: 63.6%
- viability, T/C [14]: 76.6%
- viability, T/C [15]: 92%
- viability, T/C [16]: 88.7%
- viability, T/C (second compound 1 µM, first compound 0.00316 µM): 63.2%
- viability, T/C (second compound 1 µM, first compound 0.01 µM): 77.3%
- viability, T/C [19]: 76.5%
- viability, T/C [20]: 80.2%
- viability, T/C [21]: 86%
- viability, T/C [22]: 95.2%
- viability, T/C (second compound 3.16 µM, first compound 0.00316 µM): 72.2%
- viability, T/C (second compound 3.16 µM, first compound 0.01 µM): 93%
- viability, T/C [25]: 78.7%
- viability, T/C [26]: 68.6%
- viability, T/C [27]: 79.4%
- viability, T/C [28]: 82.4%
- viability, T/C (second compound 10 µM, first compound 0.00316 µM): 63.8%
- viability, T/C (second compound 10 µM, first compound 0.01 µM): 66.1%
- viability, T/C [31]: 70.7%
- viability, T/C [32]: 53%
- viability, T/C [33]: 65.2%
- viability, T/C [34]: 74.9%
